Measured values as given in patent US20090326072A1, “USE OF 2-(2-NITRO-4-TRIFLUOROMETHYLBENZOYL)-l,3- CYCLOHEXANEDIONE IN THE TREATMENT OF PARKINSON'S DISEASE” (priority 2005, published 2009).
Entries after “also recorded” stand apart in the source; their conditions may differ. Like-named read-outs stand apart in the source and are kept apart here.

What was measured:
[1] = test system: plasma tyrosine; experiment: Plasma tyrosine concentration kinetic profile in the rat following a single oral dose; format: in vivo; details: for Plasma Tyrosine Concentration: single oral dose 10 mg/kg; for Plasma tyrosine: single oral dose 2.0 mg/kg
Experimental: The plasma tyrosine concentration kinetic profile in the rat was determined for each of the HPPD inhibitor test compounds by administering a single oral dose to 10-12 week old male Sprague Dawley rats. Compounds 3.20, 3.13 and 3.26 were dosed at 2 mg/kg in 1% carboxymethylcellulose (1% CMC) vehicle, whilst compounds 3.22, 3.12, 3.15, 3.18, 3.23, 3.21, 3.11, 3.01, 3.24 and 3.25 were administered at 10 mg/kg in 1% CMC.
Blood samples to determine plasma tyrosine concentration were obtained at frequent intervals during the first 24 hours post-dose, and at 48 hours post-dose. These samples were either compared with blood samples obtained from control rats which only received an equivalent volume of the vehicle, 1% CMC, or by comparison with control samples obtained from the rats 1 hour prior to dosing with test the compound. Prior to the analysis of the samples for plasma tyrosine concentration, the blood samples were centrifuged at 1800 g for 10 minutes at 4° C. The plasma was collected and then filtered through a centrifugal micro partition device at 1500 g for 30 minutes at 4° C. The filtered plasma was then divided into two aliquots and stored frozen at −70° C. for subsequent gradient reverse phase high performance liquid chromatographic (HPLC) analysis of plasma tyrosine. Aliquots of plasma were analysed by HPLC using a 250×4.6 mm Hichrom S5ODS2 column at 30° C., eluted with a mobile phase of water/acetonitrile/trifluoroacetic acid (950:50:2 v/v/v) at a flow rate of 1 ml/min. Detection was by a diode array detector at 274 nm. Appropriate tyrosine standards were run alongside the samples for calibration purposes.
The plasma tyrosine concentration kinetic profile for the test compounds 3.20, 3.13 and 3.26 are shown at the time points 1, 2, 4, 6, 12, 24 and 48 hours post-dose in Table 1.1. The data shown are the mean±standard deviation (n=4), except for the 6 hour time point where the data were obtained from n=3 rats for the control and 3.26 groups.
The plasma tyrosine concentration kinetic profile for the test compounds 3.22, 3.12, 3.15, 3.18, 3.23, 3.21, 3.11, 3.01, 3.24 and 3.25 are shown at the time points −1 hour (pre-dose control), 1, 3, 6, 12, 24 and 48 hours post-dose, in Tables 1.2 and 1.3. The data shown are the mean±standard deviation (n=3), except for the −1 hour time point with compound 3.23, where n=2 (Table 1.2), and for the 3 and 6 hour time points with compound 3.21, where n=2 (Table 1.3).

[2] = biological target: T1, 4-hydroxyphenyl pyruvate dioxygenase (HPPD) (Rattus norvegicus, UniProt P32755); experiment: Determination of 4-hydroxyphenyl pyruvate dioxygenase (HPPD) enzyme activity in vitro (rate of oxygen consumption, rat liver cytosol); format: biochemical; details: for inhibition at 0.1 µM: read-out: % Inhibition at 100 nM
T1 construct: rat liver cytosol (2.7 mg of protein/ml incubate); from tissue; host or cells: rat liver (cytosol, 110,000 g supernatant)
Experimental: The principle of the assay is that 4-hydroxyphenyl pyruvate dioxygenase (HPPD), an enzyme that participates in the catabolism of tyrosine, catalyses the oxidative decarboxylation and rearrangement of 4-hydroxyphenylpyruvate (HPPA) to homogentisate, with the incorporation of both atoms of molecular oxygen into the product.
Rat liver was homogenised in buffer of the following composition; 0.25 M Sucrose, 5.4 mM EDTA, 20 mM Tris base, pH 7.4, (25% homogenate) using 6 passes of a Potter type homogeniser. The homogenate was then centrifuged at 1,800 g for 10 minutes at 4° C., the pellet was discarded and the supernatant centrifuged at 17,000 g for a further 15 minutes at 4° C. The pellet was then discarded and the supernatant centrifuged at 110,000 g for 80 minutes at 4° C. The supernatant containing the HPPD enzyme from this 110,000 g spin was collected and stored frozen at −70° C. and used in the assays of the test compounds (see below).
Prior to the start of the enzymatic reaction by the addition of HPPA substrate, the enzyme and test compound (inhibitor) were incubated together for 3 minutes.
In cases where the effects of several concentrations of an inhibitor were investigated, an IC50 value (the half-maximal inhibitory concentration of test compound) was determined by plotting the data using a non-linear regression curve-fitting program using a GraphPad Prism™ software package.
Data are expressed as mean values from two experiments except where indicated. Where appropriate the values are expressed as the mean±standard deviation.

[3] = test system: AMPT rat model of Parkinson's disease; experiment: AMPT rat model of Parkinson's disease (catalepsy descent latency and centre rearing counts); format: in vivo; details: for Mean Catalepsy Descent Latency (s) / Mean Centre Rearing Counts: 8 h post AMPT; for reversal of AMPT induced deficits in mean centre rearing counts (in words) / reversal of AMPT induced catalepsy (in words): single oral dose 10 mg/kg, -16 or -1 hours
Experimental: AMPT is a competitive inhibitor of tyrosine hydroxylase. Rats dosed with >150 mg/kg AMPT develop parkinsonian-like behavior and locomotor deficits (e.g. catalepsy and reduced rearing activity) within hours owing to the depletion of striatal dopamine concentration as a consequence of the reduced flux through the dopamine synthetic pathway. […] Indian J. Exp. Biol. 41, 1264-1268).
The effect was compared with appropriate vehicle control groups (oral vehicle was 1% carboxymethylcellulose; CMC) and a group that received a 150 mg/kg i.p. dose of L-dopa.
Eight hours after AMPT (or vehicle) administration rats were assessed for catalepsy and centre rearing activity. During the catalepsy test, the front paws of the rat were placed over a horizontal bar suspended 9 cm off the floor. The time taken for the rat to get off the bar (descent latency) was measured with a maximum time of 3 minutes being allowed. Centre rearing counts were determined over a 1 hour monitoring period using an automated activity monitoring system (AM1053). This system used an array of infrared beams to determine the activity and mobility of each animal. Each cage had 48 infrared beams, 24 on each of two levels arranged in an 8×16, 1″ (25.4 mm) pitch grid. The lower grid measured horizontal x, y movement, whilst the upper grid measured rearing movement. The activity detector operated by counting the number of times the beams changed from unbroken to broken and then incrementing the relevant counters.
These groups were compared to a positive control group (6) dosed with 225 mg/kg AMPT i.p.+150 mg/kg L-dopa i.p. 6.5 hour post AMPT dose. L-dopa was administered with a peripheral dopa decarboxylase inhibitor (benserazide), at 100 mg/kg i.p.
In a second and third series of experiments, the efficacy of eight other HPPD inhibitor test compounds were assessed in the AMPT rat model of Parkinson's disease (Tables 1.5 & 1.6). Male Sprague-Dawley rats (300-350 g) were administered a single i.p. dose of 225 mg/kg AMPT and a single oral dose of 10 mg/kg of the HPPD inhibitor test compound was administered either 1 or 16 hours prior to (−16 or −1 hours) AMPT administration. Behavioral assessment (catalepsy and centre rearing counts) was conducted 8 hours post AMPT administration. The effect was compared with a vehicle control group and a group receiving AMPT alone.

[4] = 100 nM test compound, rat liver cytosol, 3 min pre-incubation
[5] = Table 1.6: 225 mg/kg AMPT i.p. + 10 mg/kg oral at -16 hours
[6] = Table 1.6: 225 mg/kg AMPT i.p. + 10 mg/kg oral at -1 hour
[7] = Table 1.5: 225 mg/kg AMPT i.p. + 10 mg/kg oral at -16 hours

T1 sequence (P32755 whole entry): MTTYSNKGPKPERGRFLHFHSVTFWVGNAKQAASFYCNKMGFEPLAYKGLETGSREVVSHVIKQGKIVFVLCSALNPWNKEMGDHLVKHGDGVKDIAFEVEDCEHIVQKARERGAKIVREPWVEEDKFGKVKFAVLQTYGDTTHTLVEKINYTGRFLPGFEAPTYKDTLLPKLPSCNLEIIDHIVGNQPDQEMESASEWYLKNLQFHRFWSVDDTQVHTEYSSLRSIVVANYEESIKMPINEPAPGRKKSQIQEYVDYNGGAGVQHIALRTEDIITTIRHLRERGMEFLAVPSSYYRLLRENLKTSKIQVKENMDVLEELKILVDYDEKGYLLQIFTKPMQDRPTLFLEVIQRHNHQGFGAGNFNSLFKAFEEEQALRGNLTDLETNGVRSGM

inhibition at 0.1 µM [2, 4] [%] | Structure (SMILES) | Plasma Tyrosine Concentration ([1]; 1 hour post-dose) [nmol/mL] | Plasma Tyrosine Concentration ([1]; 3 hours post-dose) [nmol/mL] | Plasma Tyrosine Concentration ([1]; 6 hours post-dose) [nmol/mL] | Plasma Tyrosine Concentration ([1]; 12 hours post-dose) [nmol/mL] | Plasma Tyrosine Concentration ([1]; 24 hours post-dose) [nmol/mL] | Plasma Tyrosine Concentration ([1]; 48 hours post-dose) [nmol/mL] | Mean Catalepsy Descent Latency (s) [3, 5] | Mean Centre Rearing Counts [3, 5] | reversal of AMPT induced deficits in mean centre rearing counts (in words) [3] | reversal of AMPT induced catalepsy (in words) ([3]; 10 mg/kg) | inhibition at 0.1 µM [2] [%] | Mean Centre Rearing Counts [3, 7] | reversal of AMPT induced deficits in mean centre rearing counts (in words) ([3]; 10 mg/kg) | Mean Catalepsy Descent Latency (s) [3, 7] | other results
40 | CCn1ncc(C(=O)c2ccc(S(C)(=O)=O)c(OCCOC)c2Cl)c1O [Compound 3.12] | 168 ± 20.1 | 289 ± 35.6 | 451 ± 72.7 | 969 ± 65.2 | 1543 ± 91.1 | 114 ± 8.0 | 16 ± 4.2^+++ s | 211 ± 65 counts | either partially or completely reversing | substantially reversed; also recorded: effective in reversing | – | – | – | – | –
37 | CS(=O)(=O)c1cc(C(F)(F)F)ccc1C(=O)C(C#N)C(=O)C1CC1 (stereo not shown) [Compound 3.15] | 177 ± 21.7 | 299 ± 18.8 | 458 ± 29.4 | 671 ± 119.7 | 228 ± 76.6 | 117 ± 11.3 | – | – | either partially or completely reversing | substantially reversed; also recorded: effective in reversing | – | – | – | – | Mean Catalepsy Descent Latency (s) [3, 6]: 23 ± 8.0^+++ s; Mean Centre Rearing Counts [3, 6]: 199 ± 54 counts
– | CS(=O)(=O)c1ccc(C(=O)C2C(=O)CCCC2=O)c(Cl)c1COCC(F)(F)F [Compound 3.18] | 177 ± 3.5 | 303 ± 3.9 | 504 ± 29.4 | 1027 ± 62.7 | 1987 ± 133.0 | 313 ± 216.6 | – | – | – | substantially reversed; also recorded: effective in reversing | 31 | 359 ± 116^+ counts | reached statistical significance; also recorded: either partially or completely reversing | – | –
– | Cc1c(C(=O)C2C=NN(C)C2=O)ccc(S(C)(=O)=O)c1C1=NOCC1 (stereo not shown) [Compound 3.20] | – | – | – | – | – | – | 8 ± 1.8^+++ s | 409 ± 50^+++ counts | – | substantially reversed; also recorded: effective in reversing | 57 | – | reached statistical significance; also recorded: either partially or completely reversing | – | Plasma tyrosine ([1]; 1 hour post-dose): 169 ± 13.6 nmol/mL; Plasma tyrosine ([1]; 2 hours post-dose): 231 ± 30.2 nmol/mL; Plasma tyrosine ([1]; 4 hours post-dose): 353 ± 50.9 nmol/mL; Plasma tyrosine ([1]; 6 hours post-dose): 479 ± 40.0 nmol/mL; Plasma tyrosine ([1]; 12 hours post-dose): 796 ± 44.3 nmol/mL; Plasma tyrosine ([1]; 24 hours post-dose): 745 ± 171.8 nmol/mL; Plasma tyrosine ([1]; 48 hours post-dose): 96 ± 1.7 nmol/mL
24 | CC1(C)C(=O)C(C(=O)c2ccc(C(F)(F)F)cc2[N+](=O)[O-])C(=O)C(C)(C)C1=O [Compound 3.23] | 173 ± 22.0 | 307 ± 28.0 | 502 ± 37.5 | 1041 ± 88.5 | 1835 ± 444.1 | 299 ± 202.8 | – | – | either partially or completely reversing | substantially reversed; also recorded: effective in reversing | – | 273 ± 63 counts | – | 10 ± 3.0^+++ s | –
– | Cc1nc(C(F)(F)F)ccc1C(=O)C1C(=O)C2CCC(C2)C1=O.[K+] (stereo not shown) [Compound 3.24] | 184 ± 27.8 | 313 ± 49.9 | 548 ± 83.9 | 1008 ± 85.2 | 2110 ± 111.1 | 2571 ± 167.7 | – | – | either partially or completely reversing | substantially reversed; also recorded: effective in reversing | 5 | 189 ± 36 counts | – | 15 ± 8.9^+++ s | inhibition at 0.3 µM ([2]; read-out: % inhibition at 300 nM): 34%
